# Read-outs that look alike come from different tables or passages of the source.
# Columns and labels:
# [1] = test system: E. coli O157:H7; assay: In vitro formation of isothiocyanates by myrosinase, viable counts; type: cell-based, Escherichia coli O157:H7; details: glucosinolate 2.5 mM plus myrosinase 0.2 U/tube, MHB with sausage ingredients
# [2] = test system: Staphylococcus carnosus; assay: microbe, parasite or virus in culture; type: cell-based; details: pH 5.5
# [3] = test system: Pediococcus pentosaceus; assay: microbe, parasite or virus in culture; type: cell-based; details: pH 5.5
# [4] = test system: E. coli O157:H7 (5-strain cocktail); assay: microbe, parasite or virus in culture; type: cell-based, Escherichia coli O157:H7; details: for MBC / Growth inhibition (p < 0.05): pH 5.5
# [5] = test system: E. coli O157:H7; details: pH 4.9; cited from earlier work
# [6] = test system: Escherichia coli, Staphylococcus aureus, Campylobacter jejuni, Pseudomonas aeruginosa, Salmonella Enteritidis, Listeria monocytogenes, Shigella boydii and …; details: cited from earlier work
# [7] = test system: E. coli O157:H7; assay: Minimum inhibitory concentration at dry-cured sausage pH; type: cell-based, Escherichia coli O157:H7; details: pH 5.5
compound,measurement,setting,value
C=CCC(=NOS(=O)(=O)O)S[C@@H]1O[C@H](CO)[C@@H](O)[C@H](O)[C@H]1O (stereo in doubt) [sinigrin],time after which E. coli was not detectable,[1],2 days
"C=CCN=C=S [AIT, allyl isothiocyanate]",MBC,"[2]; Staphylococcus carnosus, 18 h",1040 µM
same,Growth inhibition (p < 0.05),[2],0.26 mM
same,MBC,"[3]; Pediococcus pentosaceus, 18 h",20800 µM
same,Growth inhibition (p < 0.05),[3],10.40 mM
same,MBC,"[4]; Escherichia coli, 18 h",1040 µM
same,Growth inhibition (p < 0.05),[4],0.26 mM
same,minimum inhibitory concentration,[5],~250 µM
O=S(=O)(O)O/N=C(/Cc1ccc(O)cc1)S[C@@H]1O[C@H](CO)[C@@H](O)[C@H](O)[C@H]1O [sinalbin],time after which E. coli was not detectable,[1],3 days
"OCc1ccc(O)cc1 [ρ-HBA, ρ-hydroxybenzyl alcohol]",inhibitory activity against E. coli O157:H7,[4],very weak
same,Growth inhibition (p < 0.05),[4],20.14 mM
"Oc1ccc(CN=C=S)cc1 [ρ-HBIT, ρ-hydroxybenzyl isothiocyanate]",Growth inhibition (p < 0.05),[2],0.3 mM
same,MBC,[2],590 µM
same,bactericidal concentration,[6],0.35 to 2.13 mM
same,minimum inhibitory concentration,[7],~600 µM
same,Growth inhibition (p < 0.05),[3],1.48 mM
same,MBC,[3],5920 µM
same,Growth inhibition (p < 0.05),[4],0.59 mM
same,MBC,[4],1480 µM
